Earlier results as cited in article PMC12383022, “Discovery of a Novel Antimicrobial Peptide from Paenibacillus sp. Na14 with Potent Activity Against Gram-Negative Bacteria and Genomic Insights into Its Biosynthetic Pathway” (Antibiotics, 2025).

Experiments:
[1] = tested on: E. coli ATCC 25922; conditions: cited from earlier work
[2] = tested on: P. aeruginosa LMG6395; conditions: cited from earlier work
[3] = tested on: K. pneumoniae LMG20218; conditions: cited from earlier work
[4] = tested on: MRSA ATCC 15975; conditions: cited from earlier work
[5] = tested on: MRSA; conditions: 10× MIC; cited from earlier work

## brevibacillin 2V
[1]
  MIC, E. coli ATCC 25922: 16 µg/mL
[2]
  MIC, P. aeruginosa LMG6395: 64 µg/mL
[3]
  MIC, K. pneumoniae LMG20218: 32 µg/mL
[4]
  MIC, MRSA ATCC 15975: 2 µg/mL
[5]
  time to complete killing of MRSA: ≤ 6 h
